Source: US20220195059A1, “Rank Pathway Inhibitors in Combination with CDK Inhibitors” (INSTITUTO DE MEDICINA MOLECULAR JOÃO LOBO ANTUNES, priority 2019, published 2022)

Columns and labels:
[1] = test system: RANK OE cells (MCF-7^OE, T47D^OE) and parental MCF-7, T47D cells; test: Alamar blue viability assay, RANK OE luminal breast cancer cells vs parental counterparts; format: cell-based, human; details: RANK OE cells vs parental counterparts; drug alone; 7 days
Procedure: (§1) Cells were seeded in 96 well-plates (2-5×10^4 cells/mL), with or without paclitaxel (Y0000698, Sigma), doxorubicin hydrochloride (D2975000, Sigma), palbociclib (PD 0332991 isethionate, PZ0199, Sigma), ribociclib (LEE011 succinate, SC-488174, Santa Cruz), abemaciclib mesylate (LY2835219, S7158, Selleckchem), fulvestrant (S1191, Selleckchem), everolimus (#73122, StemCell Technologies), full length human OPG (SRP3132, Sigma), and OPG-Fc (Amgen). Medium was replaced every 2 days. After 7 days, 1:10 Alamar blue (Invitrogen) was added to each well and fluorescence was measured 2 hours after incubation (excitation 560 nm; emission 590 nm) in an Infinite M200 microplate reader (Tecan).
In particular, RANK OE cells were tested for responsiveness to hormone therapy. Briefly, RANK OE cells were seeded in multi-well plates and exposed to fulvestrant for 7 days.
In this assay, however, RANK OE cells were exposed to a CDK 4/6 inhibitor alone or in combination with an inhibitor of the RANK pathway, in order to test the effect of blocking the RANK pathway in this context. Briefly, RANK OE cells were seeded in multi-well plates and exposed to palbociclib, ribociclib or abemaciclib alone or in combination with OPG-Fc for 7 days. Osteoprotegrin (OPG) is the physiologic soluble decoy receptor for RANK ligand (RANKL), and OPG-Fc is a fusion protein comprising only the four cysteine-rich domains of OPG (D1 to D4) fused with the Fc domain of an IgG1 antibody.
In this study, the CDK4/6 inhibitors palbociclib and ribociclib were exposed to RANK OE cells in combination with fulvestrant or everolimus. This combination therapy was then tested alone or in combination with OPG, an inhibitor of the RANK pathway. In this assay, the full-length OPG protein was used, in contrast to the previous example utilizing OPG-Fc.
To address this question, cell growth in the presence or absence of a CDK4 inhibitor was quantified. Briefly, cells were seeded in 96-well plates and exposed to two different drugs, CDK4 inhibitors, 3-ATA (FIG. 20A) or Cdk4 inhibitor Ill (FIG. 20B) for seven days. Medium was replaced every two days, and viability was assessed by Alamar blue assay. FIG. 20A provides the cell growth quantification in the presence of the CDK4 inhibitor 3-ATA and FIG. 20B provides the cell growth quantification in the presence of another CDK4 inhibitor, Cdk4 Inhibitor Ill. The results are the mean of at least three independent assays, with 4 replicates per assay, and presented as the mean±SEM. p-value was calculated using 2-way ANOVA, *p<0.05, **p<0.01, ***p<0.001.
To answer this question, cell growth in the presence of the pan-CDK inhibitor seliciclib (also known as roscovitine or CYC202) was analyzed. Briefly, cells were seeded in 96-well plates and exposed to different drugs for seven days. Medium was replaced every two days, and viability was assessed by Alamar blue assay.
Cells were seeded in 96 well-plates (2-5×10^4 cells/mL), with or without palbociclib (PD 0332991 isethionate, PZ0199, Sigma), ribociclib (LEE011 succinate, SC-488174, Santa Cruz), abemaciclib mesylate (LY2835219, S7158, Selleckchem), 3-ATA (sc-202414, Santa Cruz), Cdk4 inhibitor Ill (sc-202988, Santa Cruz), seliciclib (S1153, Selleckchem), and OPG-Fc (PL-33324, Amgen). Medium was replaced every 2 days. After 7 days, 1:10 Alamar blue (Invitrogen) was added to each well and fluorescence was measured 2 hours after incubation (excitation 560 nm; emission 590 nm) in an Infinite M200 microplate reader (Tecan).

MDA-MB-231 TNBC cells = test: Alamar blue viability assay, MDA-MB-231 TNBC cells with or without RANK knockdown; format: cell-based, human; details: 7 days
Procedure: For lentiviral transduction, MDA-MB-231GFP+Luc+ cells were seeded in 24-well plates, at a density of 4×10^4 cells/well. 24 hours after seeding, medium was replaced by fresh medium containing 8 μg/ml Polybrene (Sigma) and RANK shRNA (h) lentiviral particles (15-20 μl/well; sc-42960-V, Santa Cruz) or control shRNA lentiviral particles (15-20 μl/well; sc-108080, Santa Cruz). Cells were selected with 0.5 μg/mL Puromycin dihydrochloride (Sigma) starting three days after transduction.
as §1
RANK KD clones were first generated for use in sensitivity assays. Briefly, MCF-7GFP+Luc+ cells were seeded in multi-well plates and then exposed to fresh medium comprising RANK shRNA (h) lentiviral particles or control shRNA lentiviral particles. The transduced cells were selected using Puromycin dihydrochloride starting three days post-transduction.

[2] = test system: MDA-MB-231 GFP+Luc+ xenografts; test: Pilot study, orthotopic TNBC xenografts; format: in vivo, NSG mice; details: measured throughout the experiment; between groups
Procedure: A pilot study to test the sensitivity of TNBC xenografts to CDK4/6 inhibitors (palbociclib) in combination with RANK pathway blockage (OPG-Fc) was performed. […] As shown in this figure, body weight was not different between groups. The proliferation index of tumors as measured by the quantification of Ki67-positive cells and p-pRB positive cells is shown in FIG. 13D. FIG. 13C is a series of images of Ki67-stained or p-pRb stained cells.

CC(=O)c1c(C)c2cnc(Nc3ccc(N4CCNCC4)cn3)nc2n(C2CCCC2)c1=O [palbociclib]
sensitivity of RANK OE cells to the drug (cell viability) [1]: decreased sensitivity
sensitivity to CDK4/6 inhibitor (cell viability) (MDA-MB-231 TNBC cells; MDA-231 cells and MDA-231 shControl cells): resistance
sensitivity to CDK4/6 inhibitor (cell viability) (MDA-MB-231 TNBC cells; TNBC RANK KD cells (MDA-231 shRANK) vs RANK expressing cells): restored sensitivity
body weight [2]: not different
